# Measurements: ChEMBL document CHEMBL1128428, “Inhibition of matrix metalloproteinases by hydroxamates containing heteroatom-based modifications of the P1' group” (J Med Chem, 1995)
# pKi: −log10 of the molar value.
# Target: T1, Interstitial collagenase (Homo sapiens, UniProt P03956)
# T1 sequence (P03956 whole entry): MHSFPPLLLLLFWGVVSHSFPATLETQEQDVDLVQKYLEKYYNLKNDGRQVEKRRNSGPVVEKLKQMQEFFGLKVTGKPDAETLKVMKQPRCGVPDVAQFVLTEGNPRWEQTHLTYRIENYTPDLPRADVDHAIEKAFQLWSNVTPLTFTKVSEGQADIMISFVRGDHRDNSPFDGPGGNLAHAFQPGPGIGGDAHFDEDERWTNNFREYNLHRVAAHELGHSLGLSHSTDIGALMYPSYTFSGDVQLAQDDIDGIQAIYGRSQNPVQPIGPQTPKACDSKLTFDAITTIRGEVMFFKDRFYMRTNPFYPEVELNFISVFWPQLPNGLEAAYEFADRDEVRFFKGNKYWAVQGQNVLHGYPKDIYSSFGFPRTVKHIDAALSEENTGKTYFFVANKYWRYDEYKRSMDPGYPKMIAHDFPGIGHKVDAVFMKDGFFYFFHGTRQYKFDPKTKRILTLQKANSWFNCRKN
row,SMILES,pKi
1,CNC(=O)[C@H](Cc1ccccc1)NC(=O)[C@H](CCCC(=O)NCc1ccccc1)CC(=O)NO,5.02
2,CNC(=O)[C@H](Cc1ccccc1)NC(=O)[C@H](CCCC(=O)NCCc1ccccc1)CC(=O)NO,5.89
3,CC(C)(C)[C@H](NC(=O)[C@H](CCCCOc1ccc(Cl)cc1)CC(=O)NO)C(=O)NCCCN1CCOCC1,8.00
4,CC(C)(C)[C@H](NC(=O)[C@H](CCCCOc1ccc(Cl)cc1)CC(=O)NO)C(=O)NCCc1ccc(S(N)(=O)=O)cc1,7.21
5,CNC(=O)[C@H](Cc1ccccc1)NC(=O)[C@H](CCCCCO)CC(=O)NO,7.51
6,CC(C)(C)[C@H](NC(=O)[C@H](CCCCOc1ccc(Cl)cc1)CC(=O)NO)C(=O)NCCc1ccccn1,7.10
7,CNC(=O)[C@H](Cc1ccccc1)NC(=O)[C@H](CCCCO)CC(=O)NO,7.19

# Results, then the molecule that gave them:
row,pKi,SMILES
1,7.21,CC(C)(C)[C@H](NC(=O)[C@H](CCCCOc1ccccc1)CC(=O)NO)C(=O)NCCCC(=O)O
2,6.84,CNC(=O)[C@@H](NC(=O)[C@H](CCCCOc1cccc(Cl)c1)CC(=O)NO)C(C)(C)C
3,6.77,CCCc1ccc(OCCCC[C@H](CC(=O)NO)C(=O)N[C@H](C(=O)NC)C(C)(C)C)cc1
4,7.52,CNC(=O)[C@@H](NC(=O)[C@H](CCCCOc1ccc(C(C)C)cc1)CC(=O)NO)C(C)(C)C
5,7.02,CNC(=O)[C@@H](NC(=O)[C@H](CCCCOc1ccc(Cl)c(Cl)c1)CC(=O)NO)C(C)(C)C
6,> 9.00,CNC(=O)[C@@H](NC(=O)[C@H](CCCCOc1ccc(OC)cc1)CC(=O)NO)C(C)(C)C
7,7.96,CNC(=O)[C@@H](NC(=O)[C@H](CCCCOc1ccc(F)cc1)CC(=O)NO)C(C)(C)C
8,6.46,CNC(=O)[C@@H](NC(=O)[C@H](CCCCOc1ccc(C(C)(C)C)cc1)CC(=O)NO)C(C)(C)C
9,8.52,CNC(=O)[C@@H](NC(=O)[C@H](CCCCOc1ccccc1)CC(=O)NO)C(C)(C)C
10,7.10,CC(C)(C)[C@H](NC(=O)[C@H](CCCCOc1ccc(Cl)cc1)CC(=O)NO)C(=O)NCCN1CCCC1
11,7.14,CNC(=O)[C@@H](NC(=O)[C@H](CCCCOc1cccc(OC)c1)CC(=O)NO)C(C)(C)C
12,5.72,CCCCCc1ccc(OCCCC[C@H](CC(=O)NO)C(=O)N[C@H](C(=O)NC)C(C)(C)C)cc1
13,6.85,CC(C)(C)[C@H](NC(=O)[C@H](CCCCOc1ccccc1)CC(=O)NO)C(=O)NCCC(=O)O
14,6.24,CC(C)(C)[C@H](NC(=O)[C@H](CCCCOc1ccc(Cl)cc1)CC(=O)NO)C(=O)NCCc1ccccc1
15,7.80,CNC(=O)[C@@H](NC(=O)[C@H](CCCCOc1cccc(C)c1)CC(=O)NO)C(C)(C)C

# Target: Neutrophil collagenase (Homo sapiens, UniProt P22894)
# Sequence (P22894 whole entry): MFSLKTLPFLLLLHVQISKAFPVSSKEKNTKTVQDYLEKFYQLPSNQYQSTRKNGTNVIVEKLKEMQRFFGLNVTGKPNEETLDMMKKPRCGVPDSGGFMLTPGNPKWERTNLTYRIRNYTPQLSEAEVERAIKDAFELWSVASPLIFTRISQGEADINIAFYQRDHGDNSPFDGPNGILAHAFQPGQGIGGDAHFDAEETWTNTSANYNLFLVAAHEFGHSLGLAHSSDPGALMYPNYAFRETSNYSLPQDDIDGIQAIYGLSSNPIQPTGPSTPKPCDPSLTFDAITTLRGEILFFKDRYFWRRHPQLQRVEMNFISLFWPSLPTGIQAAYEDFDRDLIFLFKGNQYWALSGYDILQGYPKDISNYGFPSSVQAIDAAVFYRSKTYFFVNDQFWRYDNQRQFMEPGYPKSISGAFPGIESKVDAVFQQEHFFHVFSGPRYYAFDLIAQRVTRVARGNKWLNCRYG
row,pKi,SMILES
1,7.52,CNC(=O)[C@H](Cc1ccccc1)NC(=O)[C@H](CCCC(=O)NCc1ccccc1)CC(=O)NO
2,7.49,CNC(=O)[C@H](Cc1ccccc1)NC(=O)[C@H](CCCC(=O)NCCc1ccccc1)CC(=O)NO
3,8.70,CCCNC(=O)CCC[C@H](CC(=O)NO)C(=O)N[C@@H](Cc1ccccc1)C(=O)NC
4,7.92,CCCC(=O)NCCCC[C@H](CC(=O)NO)C(=O)N[C@@H](Cc1ccccc1)C(=O)NC
5,8.70,CNC(=O)[C@H](Cc1ccccc1)NC(=O)[C@H](CCCCCOCc1ccccc1)CC(=O)NO
6,> 8.70,CNC(=O)[C@H](Cc1ccccc1)NC(=O)[C@H](CCCCCOc1ccccc1)CC(=O)NO
7,8.40,CNC(=O)[C@H](Cc1ccccc1)NC(=O)[C@H](CCCCCO)CC(=O)NO
8,> 8.70,CNC(=O)[C@H](Cc1ccccc1)NC(=O)[C@H](CCCCOc1ccccc1)CC(=O)NO
